In brackets after ≈: the same amount, converted by molar mass. Activity calls are given as the source filed them. The calls are words filed in the database; no cut-off is given here.
Assays:
[1] = Antioxidant activity assessed as inhibition of AAPH-induced lipid peroxidation after 3 hrs by TBA-MDA test; format: physicochemical
[2] = Antioxidant activity assessed as inhibition of AAPH-induced lipid peroxidation at 200 ug/ml after 3 hrs by TBA-MDA test; format: physicochemical
[3] = system: Salmonella enterica subsp. enterica serovar Abony; assay: Antibacterial activity against Salmonella abony NCTC 6017 by broth microdilution method; format: functional
Pseudomonas aeruginosa = assay: Antibacterial activity against Pseudomonas aeruginosa ATCC 9027 by broth microdilution method; format: functional
Escherichia coli = assay: Antibacterial activity against Escherichia coli ATCC 8739 by broth microdilution method; format: functional
Bacillus spizizenii = assay: Antibacterial activity against Bacillus subtilis ATCC 6633 by broth microdilution method; format: functional
Staphylococcus aureus = assay: Antibacterial activity against Staphylococcus aureus ATCC 6538 by broth microdilution method; format: functional

Structure (SMILES) | IC50 [1] [µg/mL] | inhibition (INH) [2] [%] | MIC [3] | MIC (Pseudomonas aeruginosa) | MIC (Escherichia coli) | MIC (Bacillus spizizenii) | MIC (Staphylococcus aureus)
O=C1O[C@H]([C@@H](O)CO)C(O)=C1O [ASCORBIC ACID] | 9.12 (≈ 51.8 µM) | 99.9 |  |  |  |  | 
COc1ccccc1/C=c1\sc2nc3cc(C(=O)c4ccccc4)ccc3n2c1=O | 74.11 (≈ 180 µM) | 80.35 |  |  |  |  | 
C[C@H]1c2cccc(O)c2C(=O)C2=C(O)[C@]3(O)C(=O)C(C(N)=O)=C(O)[C@@H](N(C)C)[C@@H]3[C@@H](O)[C@@H]21.O [DOXYCYCLINE] |  |  | 6.25 µg/mL | 12.5 µg/mL | 0.78 µg/mL | 1.56 µg/mL | 0.78 µg/mL
O=c1c(O)c(-c2ccc(O)c(O)c2)oc2cc(O)cc(O)c12 [QUERCETIN] | 10.47 (≈ 34.6 µM) | 91.12 |  |  |  |  | 
O=C(c1ccccc1)c1ccc2c(c1)nc1s/c(=C\c3ccc(F)cc3)c(=O)n12 | 53.7 (≈ 134 µM) | 90.76 |  |  |  |  | 
N=c1n(CC(=O)c2ccccc2)c2ccc([N+](=O)[O-])cc2n1CC(=O)c1ccccc1 | > 200 | 23.43 | inactive | inactive | inactive | 1000 µg/mL (≈ 2410 µM) | inactive
Cc1ccc2c(c1)n(CCCc1ccccc1)c(=N)n2CCCc1ccccc1 | 144.88 (≈ 378 µM) | 62.15 | 500 µg/mL (≈ 1300 µM) | inactive | 500 µg/mL (≈ 1300 µM) | 125 µg/mL (≈ 326 µM) | 16 µg/mL (≈ 41.7 µM)
O=C(c1ccccc1)c1ccc2c(c1)nc1s/c(=C\c3ccccc3F)c(=O)n12 | 86.97 (≈ 217 µM) | 75.76 |  |  |  |  | 
O=C(c1ccccc1)c1ccc2c(c1)nc1s/c(=C\c3ccc4c(c3)OCO4)c(=O)n12 | 85.51 (≈ 201 µM) | 60.8 |  |  |  |  | 
CCOC(=O)Cn1c(=N)n(CC(=O)OCC)c2cc(C)ccc21 | 176.58 (≈ 553 µM) | 55.87 | inactive | inactive | inactive | inactive | inactive
O=C(O)/C=C/c1ccc(O)c(O)c1 [CAFFEIC ACID] | 3.79 (≈ 21 µM) | 99.98 |  |  |  |  | 
Cc1ccc2c(c1)n(CC(=O)c1ccccc1)c(=N)n2CC(=O)c1ccccc1 | > 200 | 39.26 | inactive | inactive | inactive | 500 µg/mL (≈ 1300 µM) | 500 µg/mL (≈ 1300 µM)
Cc1c(C)c2c(c(C)c1O)CCC(C)(C(=O)O)O2 (stereo unspecified) [TROLOX] | 7.74 (≈ 30.9 µM) | 85.61 |  |  |  |  | 
CCOC(=O)Cn1c(=N)n(CC(=O)OCC)c2cc(C(=O)c3ccccc3)ccc21 | 141.89 (≈ 347 µM) | 74.04 | inactive | inactive | inactive | inactive | inactive

Reference: ChEMBL document CHEMBL3616469, “Synthesis, electronic properties, antioxidant and antibacterial activity of some new benzimidazoles” (Bioorg Med Chem, 2015)
